# Measurements as given in patent US4720543A, “1a-7-substituted derivatives of mitomycin and uses thereof” (priority 1985, dated 1988).
# How the values were obtained:
# [1] = toxic single doses in normal CD2F1 mice
# Procedure: Drug was administered intraperitoneally (i.p.) in a volume of 0.1 ml per 10 grams body weight.
# Ehrlich ascites = test: murine Ehrlich ascites antitumor activity; format: in vivo
# Procedure: The antitumor activity of M-TAG for the murine Ehrlich ascities tumor was also determined. Ehrlich ascites was maintained i.p. in female BALB/C mice. For antitumor studies, 1×10^7 Ehrlich ascites cells (in 0.10 ml) were implanted i.p. in male BD2F1 mice. Drug was administered i.p. (single LD10 dose) one day after tumor implantation.
# Pseudomonas Sp. = test: antibiotic activity, bacterial growth inhibition in culture; format: cell-based
# Procedure: (§1) Bacteria were grown in a standard growth culture at pH 7.2. After the cultures were incubated at 37° C. overnight and diluted into fresh medium, controls and the test antibiotics dissolved in 0.3% hydroxy propylcellulose (HPC) were added at various concentrations and then reincubated overnight. The measure of antibiotic activity was determined by the amount of bacterial growth inhibition as shown by measurement of the optical density at 660 nm.
# Staphylococcus Sp. = test: as above; format: cell-based
# Procedure: as §1
# Listeria Sp. = test: as above; format: cell-based
# Procedure: as §1
# Klebsiella Pneumonia = test: as above; format: cell-based
# Procedure: as §1
# W3100 (E. coli) = test: as above; format: cell-based
# Procedure: as §1
# WP2s (E. coli) = test: as above; format: cell-based
# Procedure: as §1
# bone marrow = conditions: mice, rats, cats, dogs, and rhesus monkeys; cited from earlier work
# [2] = test system: peripheral leukocyte (WBC); test: effects on peripheral leukocyte (WBC) count; format: in vivo, mice
# Procedure: Comparative studies were performed with M-TAG and mitomycin C. Drug was dissolved in absolute ethanol, and then adjusted to a final concentration of 8% ethanol-92% sterile water. Blood samples obtained were diluted in 9.98 ml of Isoton (a neutral isotonic buffer solution) and counted in a Coulter counter after lysis with Zapoglobin (an enzyme solution which lyses red blood cells but not white blood cells). WBC counts are expressed as a percentage of values from control mice receiving drug vehicle only.
# in vitro = conditions: human, bone marrow cells
# Procedure: The human bone marrow CFU-C assay measures human bone marrow cells committed to granulocyte-macrophage differentiation. This in vitro assay serves as a model for predicting the relative toxicity of an experimental drug on the granulocytic series of the bone marrow. […] Both drugs were dissolved in 0.5% DMSO, and nucleated human bone marrow cells were exposed in vitro (for 90 minutes at 37° C.) to varying concentrations of each drug. The cells were then plated in triplicate in 3% agar for the CFU-C assay, using GCT, (Giant Cell Tumor) extract (Gibco, Grand Island, N.Y.) as colony-stimulating factor.
# P388 leukemia = test: murine P388 leukemia antitumor activity; format: in vivo; conditions: approximate LD10 dose (M-TAG 250 mg/kg; mitomycin C 4 mg/kg), day one
# Procedure: The murine P388 leukemia system, maintained intraperitoneally in female DBA/2 mice, was used to evaluate antitumor activity.
# The P388 antileukemic activity of the test compound (M-TAG) was assessed by mean survival days, percentage increased life span or %ILS, and number of survivors after 45 days. The %ILS was calculated as follows:
# %ILS=(T-C)/C×100 where T is the mean survival days of the treated mice and C is the mean survival days of the untreated mice
# B16 melanoma = test: murine B16 melanoma antitumor activity; conditions: M-TAG 250 mg/kg or mitomycin C 4 mg/kg, i.p. day 1
# Excerpt: Activity against the murine B16 melanoma is currently being determined.
# [3] = Escherichia coli, 0.04 mcg/ml, 37° C. overnight, read-out: amount of bacterial growth inhibition (first figure)
# [4] = Escherichia coli, 0.4 mcg/ml, 37° C. overnight, read-out: amount of bacterial growth inhibition (first figure)
# [5] = Escherichia coli, 4.0 mcg/ml, 37° C. overnight, read-out: amount of bacterial growth inhibition (first figure)
# [6] = Escherichia coli, 40 mcg/ml, 37° C. overnight, read-out: amount of bacterial growth inhibition (first figure)
# [7] = Escherichia coli, 400 mcg/ml, 37° C. overnight, read-out: amount of bacterial growth inhibition (first figure)
compound,measurement,setting,value
"CO[C@@]12[C@H](COC(N)=O)C3=C(C(=O)C(C)=C(N)C3=O)N1C[C@@H]1N[C@@H]12 [Mitomycin C, mitomycin C, reference compound]",approximate LD10 dose (molar),[1]; single i.p. dose,~12 µmol/kg
same,LD10 dose,[1]; single i.p. dose toxic to 10% of normal mice,~4 mg/kg
same,mice alive on Day 30,Ehrlich ascites; 4 mg/kg i.p.,50%
same,% ILS,"Ehrlich ascites; single approximate LD10 dose i.p. (M-TAG 250 mg/kg; mitomycin C 4 mg/kg), one day after implantation",82%
same,optical density at 660 nm (figure in parentheses),Pseudomonas Sp.; 0.04 mcg/ml,0.11
same,optical density at 660 nm (figure in parentheses),Pseudomonas Sp.; 0.4 mcg/ml,0.11
same,optical density at 660 nm (figure in parentheses),Pseudomonas Sp.; 4.0 mcg/ml,0.11
same,optical density at 660 nm (figure in parentheses),Pseudomonas Sp.; 40 mcg/ml,0.14
same,optical density at 660 nm (figure in parentheses),Pseudomonas Sp.; 400 mcg/ml,0.15
same,inhibition at 0.04 µg/mL,"Pseudomonas Sp.; Pseudomonas, 0.04 mcg/ml, 37° C. overnight, read-out: amount of bacterial growth inhibition (first figure)",78%
same,inhibition at 0.4 µg/mL,"Pseudomonas Sp.; Pseudomonas, 0.4 mcg/ml, 37° C. overnight, read-out: amount of bacterial growth inhibition (first figure)",78%
same,inhibition at 4 µg/mL,"Pseudomonas Sp.; Pseudomonas, 4.0 mcg/ml, 37° C. overnight, read-out: amount of bacterial growth inhibition (first figure)",78%
same,inhibition at 40 µg/mL,"Pseudomonas Sp.; Pseudomonas, 40 mcg/ml, 37° C. overnight, read-out: amount of bacterial growth inhibition (first figure)",72%
same,inhibition at 400 µg/mL,"Pseudomonas Sp.; Pseudomonas, 400 mcg/ml, 37° C. overnight, read-out: amount of bacterial growth inhibition (first figure)",71%
same,optical density at 660 nm (figure in parentheses),Staphylococcus Sp.; 0.04 mcg/ml,0.52
same,optical density at 660 nm (figure in parentheses),Staphylococcus Sp.; 0.4 mcg/ml,0.03
same,optical density at 660 nm (figure in parentheses),Staphylococcus Sp.; 4.0 mcg/ml,0.03
same,optical density at 660 nm (figure in parentheses),Staphylococcus Sp.; 40 mcg/ml,0.041
same,optical density at 660 nm (figure in parentheses),Staphylococcus Sp.; 400 mcg/ml,0.046
same,inhibition at 0.04 µg/mL,"Staphylococcus Sp.; Staphylococcus, 0.04 mcg/ml, 37° C. overnight, read-out: amount of bacterial growth inhibition (first figure)",30%
same,inhibition at 0.4 µg/mL,"Staphylococcus Sp.; Staphylococcus, 0.4 mcg/ml, 37° C. overnight, read-out: amount of bacterial growth inhibition (first figure)",93%
same,inhibition at 4 µg/mL,"Staphylococcus Sp.; Staphylococcus, 4.0 mcg/ml, 37° C. overnight, read-out: amount of bacterial growth inhibition (first figure)",93%
same,inhibition at 40 µg/mL,"Staphylococcus Sp.; Staphylococcus, 40 mcg/ml, 37° C. overnight, read-out: amount of bacterial growth inhibition (first figure)",91%
same,inhibition at 400 µg/mL,"Staphylococcus Sp.; Staphylococcus, 400 mcg/ml, 37° C. overnight, read-out: amount of bacterial growth inhibition (first figure)",90%
same,optical density at 660 nm (figure in parentheses),Listeria Sp.; 0.4 mcg/ml,0.13
same,optical density at 660 nm (figure in parentheses),Listeria Sp.; 4.0 mcg/ml,0.03
same,optical density at 660 nm (figure in parentheses),Listeria Sp.; 40 mcg/ml,0.018
same,optical density at 660 nm (figure in parentheses),Listeria Sp.; 400 mcg/ml,0.018
same,inhibition at 0.04 µg/mL,"Listeria Sp.; Listeria, 0.04 mcg/ml, 37° C. overnight, read-out: amount of bacterial growth inhibition (first figure)",85%
same,inhibition at 0.4 µg/mL,"Listeria Sp.; Listeria, 0.4 mcg/ml, 37° C. overnight, read-out: amount of bacterial growth inhibition (first figure)",95%
same,inhibition at 4 µg/mL,"Listeria Sp.; Listeria, 4.0 mcg/ml, 37° C. overnight, read-out: amount of bacterial growth inhibition (first figure)",93%
same,inhibition at 40 µg/mL,"Listeria Sp.; Listeria, 40 mcg/ml, 37° C. overnight, read-out: amount of bacterial growth inhibition (first figure)",96%
same,inhibition at 400 µg/mL,"Listeria Sp.; Listeria, 400 mcg/ml, 37° C. overnight, read-out: amount of bacterial growth inhibition (first figure)",96%
same,optical density at 660 nm (figure in parentheses),Klebsiella Pneumonia; 0.04 mcg/ml,0.52
same,optical density at 660 nm (figure in parentheses),Klebsiella Pneumonia; 0.4 mcg/ml,0.086
same,optical density at 660 nm (figure in parentheses),Klebsiella Pneumonia; 4.0 mcg/ml,0.06
same,optical density at 660 nm (figure in parentheses),Klebsiella Pneumonia; 400 mcg/ml,0.13
same,inhibition at 0.04 µg/mL,"Klebsiella Pneumonia; Klebsiella pneumoniae, 0.04 mcg/ml, 37° C. overnight, read-out: amount of bacterial growth inhibition (first figure)",30%
same,inhibition at 0.4 µg/mL,"Klebsiella Pneumonia; Klebsiella pneumoniae, 0.4 mcg/ml, 37° C. overnight, read-out: amount of bacterial growth inhibition (first figure)",82%
same,inhibition at 4 µg/mL,"Klebsiella Pneumonia; Klebsiella pneumoniae, 4.0 mcg/ml, 37° C. overnight, read-out: amount of bacterial growth inhibition (first figure)",87%
same,inhibition at 40 µg/mL,"Klebsiella Pneumonia; Klebsiella pneumoniae, 40 mcg/ml, 37° C. overnight, read-out: amount of bacterial growth inhibition (first figure)",85%
same,inhibition at 400 µg/mL,"Klebsiella Pneumonia; Klebsiella pneumoniae, 400 mcg/ml, 37° C. overnight, read-out: amount of bacterial growth inhibition (first figure)",75%
same,optical density at 660 nm (figure in parentheses),W3100 (E. coli); 0.04 mcg/ml,0.13
same,optical density at 660 nm (figure in parentheses),W3100 (E. coli); 0.4 mcg/ml,0.051
same,optical density at 660 nm (figure in parentheses),W3100 (E. coli); 4.0 mcg/ml,0.06
same,inhibition at 0.04 µg/mL,W3100 (E. coli); [3],74%
same,inhibition at 0.4 µg/mL,W3100 (E. coli); [4],89%
same,inhibition at 4 µg/mL,W3100 (E. coli); [5],88%
same,inhibition at 40 µg/mL,W3100 (E. coli); [6],80%
same,inhibition at 400 µg/mL,W3100 (E. coli); [7],80%
same,optical density at 660 nm (figure in parentheses),WP2s (E. coli); 0.04 mcg/ml,0.16
same,inhibition at 0.04 µg/mL,WP2s (E. coli); [3],70%
same,inhibition at 0.4 µg/mL,WP2s (E. coli); [4],86%
same,inhibition at 4 µg/mL,WP2s (E. coli); [5],84%
same,inhibition at 40 µg/mL,WP2s (E. coli); [6],85%
same,inhibition at 400 µg/mL,WP2s (E. coli); [7],85%
same,toxicity in animals (in words),bone marrow,"severe bone marrow depression and gastrointestinal damage, and were delayed in onset"
same,"WBC nadir, % of the control",[2]; 4 mg/kg i.p.,76%
same,WBC depression / myelotoxicity (in words),"[2]; LD10-range dose i.p., days 3, 4, 5, 6 and 10",significantly greater than that produced by an equitoxic dose of M-TAG (P<0.01)
same,decrease in WBC counts,[2]; LD10 dose,24%
same,"activity at 1.5 h, 1 µM",in vitro,30%
same,"activity at 1.5 h, 5 µM",in vitro,21%
same,"activity at 1.5 h, 10 µM",in vitro,< 10%
same,% ILS,P388 leukemia,84%
same,Mean Survival,P388 leukemia,21 days
same,mice alive on day 20,B16 melanoma,5 out of 10
same,mice alive on day 10,B16 melanoma; all vehicle-control mice died,All
